Test results as given in US20230329282A1, “Application of 1-Deoxynojirimycin in Feed for Improving Nutritional Value and Sensory Effect of Rabbit Meat Products” (priority 2023, published 2023).
Marks after values point to notes of the source that are not given here.

Columns and labels:
[1] = system: New Zealand white rabbits; experiment: Fatty acid composition of rabbit meat by GC/MS; type: in vivo; settings: 28 d
Excerpt: The single-factor completely randomized test design is adopted. 36 45-day-old healthy New Zealand white rabbits (male) with the average weight of (1.05±0.04) kg are selected and randomly divided into 3 groups, and each group has 12 replicates with 1 rabbit per replicate. A control group is fed with a basal diet, an L-DNJ group is fed with the basal diet+0.14 g/kg DNJ, and an H-DNJ group is fed with the basal diet+0.28 g/kg DNJ. The diet is uniformly mixed to be prepared into cylindrical particles with the diameter of 6 mm and the length of 1 cm. The preliminary trial period is 14 d, and the trial period is 28 d. 10 g of meat sample is crushed, total fat is extracted after freeze-drying and converted to fatty acid methyl ester using a mixture of boron trifluoride, hexane and methanol (35:20:45 v/v), and then the fatty acid composition and content are measured with a gas chromatograph-mass spectrometer GC/MS (Model 7890-5975, Agilent Technologies, Inc.) with a 60 m×0.25 mm×0.25 μm capillary column. Gas chromatographic conditions are set as follows: the injector temperature is 220° C., and the detector temperature is 275° C.; and the initial column chamber temperature is 140° C. for 5 min, then increased to 240° C. at a rate of 4° C./min and maintained at 240° C. for 15 min. Finally, the fatty acid is measured with a […]. The ionization energy is 70 eV, the ion source temperature is 200° C., and the scanning range is 50-500 m/z. The retention time of each peak in the chromatogram is compared with that of a mixed standard of 37 fatty acid methyl esters (B25881, Shanghai Yuanye Bio-technology Co., Ltd.) to determine the properties of each peak. Three measurements are made for each sample, and the results are averaged.

[2] = system: New Zealand white rabbits; experiment: Antioxidant indexes of rabbit meat (T-AOC, SOD, GSH-Px, MDA kits); type: in vivo; settings: 28 d, muscle homogenate
Excerpt: The single-factor completely randomized test design is adopted. 36 45-day-old healthy New Zealand white rabbits (male) with the average weight of (1.05±0.04) kg are selected and randomly divided into 3 groups, and each group has 12 replicates with 1 rabbit per replicate. A control group is fed with a basal diet, an L-DNJ group is fed with the basal diet+0.14 g/kg DNJ, and an H-DNJ group is fed with the basal diet+0.28 g/kg DNJ. The diet is uniformly mixed to be prepared into cylindrical particles with the diameter of 6 mm and the length of 1 cm. The preliminary trial period is 14 d, and the trial period is 28 d.
About 5 g of muscular tissue is rinsed in 0-4° C. precooled normal saline to remove blood, dried with filter paper, and then weighed. The muscle tissue and 0-4° C. precooled homogenate buffer are thoroughly mixed and homogenized in an ice water bath at a […] to prepare muscle tissue homogenate with the mass concentration of 10%. The homogenate buffer contains 0.01 mol/L sucrose, 0.14 mol/L NaCl, 0.01 mol/L Tris-HCl and 0.0001 mol/L Na2EDTA, with the pH value of 7.4. The total protein content and the malondialdehyde (MDA) content of the tissue suspension is detected with a kit by a colorimetric method. Before the activities of total antioxidant capacity (T-AOC) enzyme, superoxide dismutase (SOD) and glutathione peroxidase (GSH-Px) are measured, the homogenate suspension is centrifuged at 3000 r/min for 15 min, the superneant is taken, and the activities of the enzymes are measured with relevant kits. All the kits are from Nanjing Jiancheng Bioengineering Institute, and the operation method is shown in the instructions of kits.

[3] = system: New Zealand white rabbits; settings: cited from earlier work
[4] = H-DNJ: basal diet+0.28 g/kg DNJ
[5] = L-DNJ: basal diet+0.14 g/kg DNJ
[6] = Zhong Jingbo et al. 2021, higher additive amount
[7] = high-concentration mulberry leaf DNJ (0.4 g/kg and 2 g/kg), Zhong Jingbo et al., Xie Hui et al.

In the case of `OC[C@H]1NC[C@H](O)[C@@H](O)[C@@H]1O` [DNJ, 1-deoxynojirimycin], the “MUFA C16:1n7c in rabbit meat” value [1, 4] was 2.06%, the “MUFA C16:1n9c in rabbit meat” value [1, 4] was 0.42% and the “MUFA C17:1n7c in rabbit meat” value [1, 4] was 0.21%. For the same compound, the “MUFA C18:1n9c in rabbit meat” value [1, 4] was 23.01ª %, the “MUFA C18:1n9t in rabbit meat” value [1, 4] was 2.86ª % and the “MUFA C20:1n9t in rabbit meat” value [1, 4] was 0.24^a %. The “Monounsaturated fatty acid (MUFA) total” value [1, 4] was 27.13%, the “PUFA C16:3n4c in rabbit meat” value [1, 4] was 0.19ª % and the “PUFA C18:2n6c (linoleic acid) in rabbit meat” value [1, 4] was 31.77ª %. For the same compound, the “PUFA C20:2n6c in rabbit meat” value [1, 4] was 0.57^ab %, the “PUFA C20:3n6c in rabbit meat” value [1, 4] was 0.43% and the “PUFA C20:4n6c (arachidonic acid) in rabbit meat” value [1, 4] was 2.67ª %. For the same compound, the “PUFA C22:4n6c in rabbit meat” value [1, 4] was 0.31%, the “PUFA C22:5n6c (DPA) in rabbit meat” value [1, 4] was 0.13% and the “Polyunsaturated fatty acid (PUFA) total” value [1, 4] was 36.07ª %. The “SFA 9Methyl C14:0 in rabbit meat” value [1, 4] was 0.07%, the “SFA 12Methyl C13:0 in rabbit meat” value [1, 4] was 0.14^b % and the “SFA 13Methyl C14:0 in rabbit meat” value [1, 4] was 0.13ª %. For the same compound, the “SFA 14Methyl C15:0 in rabbit meat” value [1, 4] was 0.26%, the “SFA 14methyl C16:0 in rabbit meat” value [1, 4] was 0.10% and the “SFA C10:0 in rabbit meat” value [1, 4] was 0.25%. For the same compound, the “SFA C12:0 in rabbit meat” value [1, 4] was 0.92^b %, the “SFA C14:0 in rabbit meat” value [1, 4] was 2.14% and the “SFA C15:0 in rabbit meat” value [1, 4] was 0.53%. The “SFA C16:0 in rabbit meat” value [1, 4] was 26.52^b %, the “SFA C17:0 in rabbit meat” value [1, 4] was 0.52ª % and the “SFA C18:0 in rabbit meat” value [1, 4] was 5.11^b %. The “SFA C20:0 in rabbit meat” value [1, 4] was 0.11%, the “Saturated fatty acid (SFA) total” value [1, 4] was 36.75^b % and the “Unsaturated fatty acid (UFA) total” value [1, 4] was 63.20ª %. The “MUFA C16:1n7c in rabbit meat” value [1, 5] was 1.89%, the “MUFA C16:1n9c in rabbit meat” value [1, 5] was 0.51% and the “MUFA C17:1n7c in rabbit meat” value [1, 5] was 0.22%. The “MUFA C18:1n9c in rabbit meat” value [1, 5] was 20.60^b %, the “MUFA C18:1n9t in rabbit meat” value [1, 5] was 1.08^b % and the “MUFA C20:1n9t in rabbit meat” value [1, 5] was 0.16^b %. The “Monounsaturated fatty acid (MUFA) total” value [1, 5] was 24.45%, the “PUFA C16:3n4c in rabbit meat” value [1, 5] was 0.13^b % and the “PUFA C18:2n6c (linoleic acid) in rabbit meat” value [1, 5] was 28.40^b %. For the same compound, the “PUFA C20:2n6c in rabbit meat” value [1, 5] was 0.44^b %, the “PUFA C20:3n6c in rabbit meat” value [1, 5] was 0.15% and the “PUFA C20:4n6c (arachidonic acid) in rabbit meat” value [1, 5] was 1.61^b %. The “PUFA C22:4n6c in rabbit meat” value [1, 5] was 0.39%, the “Polyunsaturated fatty acid (PUFA) total” value [1, 5] was 31.12^b % and the “SFA 9Methyl C14:0 in rabbit meat” value [1, 5] was 0.06%. For the same compound, the “SFA 12Methyl C13:0 in rabbit meat” value [1, 5] was 0.30^a %, the “SFA 13Methyl C14:0 in rabbit meat” value [1, 5] was 0.12ª % and the “SFA 14Methyl C15:0 in rabbit meat” value [1, 5] was 0.27%. The “SFA 14methyl C16:0 in rabbit meat” value [1, 5] was 0.11%, the “SFA C10:0 in rabbit meat” value [1, 5] was 0.20% and the “SFA C12:0 in rabbit meat” value [1, 5] was 1.71ª %. The “SFA C14:0 in rabbit meat” value [1, 5] was 2.16%, the “SFA C15:0 in rabbit meat” value [1, 5] was 0.52% and the “SFA C16:0 in rabbit meat” value [1, 5] was 30.16ª %. For the same compound, the “SFA C17:0 in rabbit meat” value [1, 5] was 0.46^b %, the “SFA C18:0 in rabbit meat” value [1, 5] was 8.22ª % and the “SFA C20:0 in rabbit meat” value [1, 5] was 0.11%. For the same compound, the “Saturated fatty acid (SFA) total” value [1, 5] was 44.48ª %, the “Unsaturated fatty acid (UFA) total” value [1, 5] was 55.57^b % and the “GSH-Px of rabbit meat” value [2, 4] was 7.88ª U/mg prot. The “MDA of rabbit meat” value [2, 4] was 0.45 nmol/mg prot, the “SOD of rabbit meat” value [2, 4] was 25.91 U/mg prot and the “T-AOC of rabbit meat” value [2, 4] was 0.82ª U/mg prot. For the same compound, the “GSH-Px of rabbit meat” value [2, 5] was 6.36^b U/mg prot, the “MDA of rabbit meat” value [2, 5] was 0.41 nmol/mg prot and the “SOD of rabbit meat” value [2, 5] was 25.01 U/mg prot. The “T-AOC of rabbit meat” value [2, 5] was 0.78^ab U/mg prot, the “brightness L* of rabbit meat” value [3, 6] was “increase” and the “redness α* of rabbit meat” value [3, 6] was “no effect”. For the same compound, the “activity of the duodenal amylase” value [3, 7] was “decrease”, the “digestibility of dry matter and ether extract in diet” value [3, 7] was “decrease” and the “weight gain of animals” value [3, 7] was “slow weight gain”.
